Test results taken from US20240384268A1, “Oligonucleotides” (Hudson Institute of Medical Research, priority 2021, published 2024).
In the oligonucleotide strings, read from the 5' end, every base follows the letter of its sugar. An asterisk marks phosphorothioate; unmarked linkages are phosphodiester. Other units and linkages are bracketed, terminal groups are in braces. A string of capitals states the bases alone. d = 2'-deoxy (DNA); m = 2'-O-methyl

biological target: T1, human TLR9 (Homo sapiens, UniProt Q9NR96); experiment: HEK-TLR9 NF-κB-luciferase reporter, ODN2006 stimulation; type: cell-based; details: 3mer 2'OMe ASO at 2 uM; HEK-TLR9; value relative to Ligand only = 1.000, NT = 0.000
T1 construct: HA; host or cells: 293XL-hTLR9-HA (HEK293)
T1 sequence (Q9NR96 26-1032): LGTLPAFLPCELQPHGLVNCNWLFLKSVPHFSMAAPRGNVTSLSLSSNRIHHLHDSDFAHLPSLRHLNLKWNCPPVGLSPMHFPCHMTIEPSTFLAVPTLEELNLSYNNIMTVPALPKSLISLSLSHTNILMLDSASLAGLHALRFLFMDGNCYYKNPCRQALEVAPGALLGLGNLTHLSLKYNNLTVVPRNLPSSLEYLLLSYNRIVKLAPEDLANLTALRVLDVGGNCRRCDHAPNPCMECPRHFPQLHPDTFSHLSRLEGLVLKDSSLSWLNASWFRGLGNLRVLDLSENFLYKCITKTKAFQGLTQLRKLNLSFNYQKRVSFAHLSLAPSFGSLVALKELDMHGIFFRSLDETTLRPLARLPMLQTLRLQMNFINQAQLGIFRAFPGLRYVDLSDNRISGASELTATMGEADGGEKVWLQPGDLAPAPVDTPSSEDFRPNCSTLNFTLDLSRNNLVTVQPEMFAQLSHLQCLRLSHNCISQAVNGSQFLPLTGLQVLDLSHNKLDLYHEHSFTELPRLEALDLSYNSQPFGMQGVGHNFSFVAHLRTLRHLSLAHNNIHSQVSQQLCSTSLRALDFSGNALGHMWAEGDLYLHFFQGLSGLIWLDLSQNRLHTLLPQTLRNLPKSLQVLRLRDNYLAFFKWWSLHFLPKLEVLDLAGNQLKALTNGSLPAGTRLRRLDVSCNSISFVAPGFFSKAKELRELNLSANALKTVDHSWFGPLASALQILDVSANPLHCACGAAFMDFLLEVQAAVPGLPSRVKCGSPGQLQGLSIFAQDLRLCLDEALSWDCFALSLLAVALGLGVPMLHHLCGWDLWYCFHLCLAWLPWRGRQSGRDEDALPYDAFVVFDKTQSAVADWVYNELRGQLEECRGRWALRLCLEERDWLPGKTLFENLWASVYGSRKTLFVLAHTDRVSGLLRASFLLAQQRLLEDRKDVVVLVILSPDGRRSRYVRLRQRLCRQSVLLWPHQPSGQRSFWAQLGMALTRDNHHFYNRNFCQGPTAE

Substance	TLR9 2 uM
dC*dA*dC (CAC; listed as RNA, chemistry not fully specified)	0.830
dC*dC*dA (CCA; listed as DNA, chemistry not fully specified)	1.014
dC*dC*dC (CCC; listed as DNA, chemistry not fully specified)	1.069
dC*dC*dG (CCG; listed as DNA, chemistry not fully specified)	0.936
dC*dG*dA (CGA; listed as DNA, chemistry not fully specified)	1.061
dG*dC*dC [GCC]	1.305
dG*dC*dG [GCG]	1.299
mAmUmC (mA*mU*mC) [AUC, 3-mer 2′OMe PS oligo]	0.884
mCmUmU (antisense mC*mU*mU) [660-3]	1.108
mGmAmU (mG*mA*mU) [GAU, 3-mer 2′OMe PS oligo]	0.700
mGmUmA (GUA; all 2'-O-methyl, backbone not given here; further chemistry not fully specified) [shortMut1-3b]	1.042
mGmUmC (mG*mU*mC) [GUC, 3-mer 2′OMe PS oligo]	0.856
mGmUmG (mG*mU*mG) [GUG, 3-mer 2′OMe PS oligo]	1.374
mGmUmU (mG*mU*mU) [GUU, 3-mer 2′OMe PS oligo]	1.159
mUmCmA (mU*mC*mA) [UCA, 3-mer 2′OMe PS oligo]	0.872
mUmCmG (antisense mU*mC*mG) [660-3b]	0.514
mUmGmA (mU*mG*mA) [UGA, 3-mer 2′OMe PS oligo]	1.034
mUmGmG (mU*mG*mG) [UGG, 3-mer 2′OMe PS oligo]	1.137
